Measured values: patent US20230085307A1, “PYRIDAZINONE COMPOUND AND HERBICIDE” (NISSAN CHEMICAL CORPORATION, priority 2019, published 2023)

Assays:
barnyard grass = test: Test Example 5: herbicidal effect by foliage application, plastic box (Table 20, symbol H); type: in vivo, barnyard grass (Echinochloa crus-galli); conditions: foliage application, evaluated three weeks after application; for herbicidal effect on H: barnyard grass (criteria 0-5): 320 g/ha
Method in brief: (§1)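 Sow seeds spot-wise in sterilized diluvial soil; cover with ~1.5 cm soil. Grow 14 days in greenhouse, 25° C. to 30° C. Spray foliage with emulsion diluted to predetermined amount. Rate effect after 3 weeks.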

late watergrass = test: Test Example 1: herbicidal activity, application before weed generation under submerged conditions (Table 16, symbol A); type: in vivo, late watergrass (Echinochloa oryzicola); conditions: 320 g/ha applied herbicide
Method in brief: (§2)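 Emulsion formulation, water-diluted to set dose, was put onto the flooded surface (4 cm depth, alluvial soil) the same day weeds were sown and 2.5-leaf rice transplanted. After 3 weeks at 25-30 °C under glass, each species was rated 0 (≤5% kill) to 5 (≥90% kill).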

chickweed = test: Test Example 5: herbicidal effect by foliage application, plastic box (Table 20, symbol P); type: in vivo, common chickweed (Stellaria media); conditions: foliage application, evaluated three weeks after application; for herbicidal effect on P: chickweed (criteria 0-5): 320 g/ha
Method in brief: as §1

redroot pigweed = test: Test Example 5: herbicidal effect by foliage application, plastic box (Table 20, symbol N); type: in vivo, redroot pigweed (Amaranthus retroflexus); conditions: foliage application, evaluated three weeks after application; for herbicidal effect on N: redroot pigweed (criteria 0-5): 320 g/ha
Method in brief: as §1

wild oat = test: Test Example 4: herbicidal effect by soil treatment (Table 19, symbol I); type: in vivo, wild oat (Avena fatua); conditions: amount of applied herbicide 320 g/ha
Method in brief: (§3)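 Soil-surface application: an emulsion agent diluted with water to the predetermined dose is sprayed uniformly over seeds lying under roughly 1.5 cm of sterilized diluvial soil. Boxes stay in a greenhouse at 25° C. to 30° C. Three weeks later, each species is graded on previously defined criteria.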

windgrass = test: Test Example 4: herbicidal effect by soil treatment (Table 19, symbol L); type: in vivo, windgrass (Apera spica-venti); conditions: amount of applied herbicide 320 g/ha
Method in brief: as §3

rice flat sedge = test: Test Example 3: herbicidal effect by foliage application, Wagner pot (Table 18, symbol E); type: in vivo, rice flat sedge (Cyperus iria); conditions: amount of applied herbicide 320 g/ha
Method in brief: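 Plants were sown in alluvial soil held under 0.1–0.5 cm standing water and grown 14 days in a greenhouse at 25–30 °C. An emulsifiable formulation, water-diluted to the set dose, was then sprayed onto the foliage, and effects were scored three weeks later using previously defined criteria.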

oval-leafed pondweed [1] = test: Test Example 2: herbicidal activity, application during weed generation under submerged conditions (Table 17, symbol C); type: in vivo, oval-leafed pondweed (Monochoria vaginalis); conditions: AAH 320 g/ha; application during weed generation, submerged conditions
Method in brief: (§4)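 Alluvial soil in Wagner pots was flooded to 4 cm depth and sown with the three weeds together; pots were kept in a greenhouse at 25° C. to 30° C. At the one to two leaf stage, an emulsion formulation diluted in water to a set rate went onto the water surface; scored three weeks later.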

southern crabgrass = test: Test Example 5: herbicidal effect by foliage application, plastic box (Table 20, symbol F); type: in vivo, southern crabgrass (Digitaria ciliaris); conditions: foliage application, evaluated three weeks after application; for herbicidal effect on F: southern crabgrass (criteria 0-5): 320 g/ha
Method in brief: as §1

oval-leafed pondweed [2] = test: Test Example 1: herbicidal activity, application before weed generation under submerged conditions (Table 16, symbol C); type: in vivo, oval-leafed pondweed (Monochoria vaginalis); conditions: 320 g/ha applied herbicide
Method in brief: as §2

persian speedwell [3] = test: Test Example 5: herbicidal effect by foliage application, plastic box (Table 20, symbol R); type: in vivo, Persian speedwell (Veronica persica); conditions: foliage application, evaluated three weeks after application; for herbicidal effect on R: persian speedwell (criteria 0-5): 320 g/ha
Method in brief: as §1

green foxtail = test: Test Example 5: herbicidal effect by foliage application, plastic box (Table 20, symbol G); type: in vivo, green foxtail (Setaria viridis); conditions: foliage application, evaluated three weeks after application; for herbicidal effect on G: green foxtail (criteria 0-5): 320 g/ha
Method in brief: as §1

Japanese bulrush = test: Test Example 2: herbicidal activity, application during weed generation under submerged conditions (Table 17, symbol B); type: in vivo, Japanese bulrush (Schoenoplectus juncoides); conditions: AAH 320 g/ha; application during weed generation, submerged conditions
Method in brief: as §4

persian speedwell [4] = test: Test Example 4: herbicidal effect by soil treatment (Table 19, symbol R); type: in vivo, Persian speedwell (Veronica persica); conditions: amount of applied herbicide 320 g/ha
Method in brief: as §3

Italian ryegrass = test: Test Example 4: herbicidal effect by soil treatment (Table 19, symbol K); type: in vivo, Italian ryegrass (Lolium multiflorum); conditions: amount of applied herbicide 320 g/ha
Method in brief: as §3

velvetleaf = test: Test Example 5: herbicidal effect by foliage application, plastic box (Table 20, symbol M); type: in vivo, velvetleaf (Abutilon theophrasti); conditions: foliage application, evaluated three weeks after application; for herbicidal effect on M: velvetleaf (criteria 0-5): 320 g/ha
Method in brief: as §1

Row | SMILES | herbicidal effect on H: barnyard grass (criteria 0-5) (barnyard grass) | Herbicidal effect on A: late watergrass (grade 0-5) (late watergrass) | herbicidal effect on P: chickweed (criteria 0-5) (chickweed) | herbicidal effect on N: redroot pigweed (criteria 0-5) (redroot pigweed) | herbicidal effect on I: wild oat (wild oat) | herbicidal effect on L: windgrass (windgrass) | herbicidal effect on E: rice flat sedge (rice flat sedge) | herbicidal effect rating, C: oval-leafed pondweed (oval-leafed pondweed [1]) | herbicidal effect on F: southern crabgrass (criteria 0-5) (southern crabgrass) | Herbicidal effect on C: oval-leafed pondweed (grade 0-5) (oval-leafed pondweed [2]) | herbicidal effect on R: persian speedwell (criteria 0-5) (persian speedwell [3]) | herbicidal effect on G: green foxtail (criteria 0-5) (green foxtail) | herbicidal effect rating, B: Japanese bulrush (Japanese bulrush) | herbicidal effect on R: persian speedwell (persian speedwell [4]) | herbicidal effect on K: Italian ryegrass (Italian ryegrass) | herbicidal effect on M: velvetleaf (criteria 0-5) (velvetleaf) | also measured
1 | CCCC(=O)Oc1c(C)nn(C)c(=O)c1-c1c(-c2cccc(OCC(C)C)c2)sc2ccc(F)cc12 [2-222] | 5 (Herbicidal rate of 90% or more (almost completely withered)) | 5 (Herbicidal rate of 90% or more (almost completely withered)) | 5 (Herbicidal rate of 90% or more (almost completely withered)) | 5 (Herbicidal rate of 90% or more (almost completely withered)) | 0 (Herbicidal rate of 5% or less (almost no effect)) | 4 (Herbicidal rate of 70% or more and less than 90%) | 4 (Herbicidal rate of 70% or more and less than 90%) | 3 (Herbicidal rate of 40% or more and less than 70%) | 5 (Herbicidal rate of 90% or more (almost completely withered)) | 4 (Herbicidal rate of 70% or more and less than 90%) | 5 (Herbicidal rate of 90% or more (almost completely withered)) | 5 (Herbicidal rate of 90% or more (almost completely withered)) | 3 (Herbicidal rate of 40% or more and less than 70%) | 5 (Herbicidal rate of 90% or more (almost completely withered)) | 2 (Herbicidal rate of 20% or more and less than 40%) | 5 (Herbicidal rate of 90% or more (almost completely withered)) | 
2 | Cc1nn(C)c(=O)c(-c2c(-c3ccc(C(F)F)cc3)sc3ccc(F)cc23)c1O [2-227] | 5 (Herbicidal rate of 90% or more (almost completely withered)) | 3 (Herbicidal rate of 40% or more and less than 70%) | 5 (Herbicidal rate of 90% or more (almost completely withered)) | 5 (Herbicidal rate of 90% or more (almost completely withered)) | 0 (Herbicidal rate of 5% or less (almost no effect)) | 0 (Herbicidal rate of 5% or less (almost no effect)) | 5 (Herbicidal rate of 90% or more (almost completely withered)) | 0 (Herbicidal rate of 5% or less (almost no effect)) | 5 (Herbicidal rate of 90% or more (almost completely withered)) | 0 (Herbicidal rate of 5% or less (almost no effect)) | 5 (Herbicidal rate of 90% or more (almost completely withered)) | 4 (Herbicidal rate of 70% or more and less than 90%) | 2 (Herbicidal rate of 20% or more and less than 40%) | 4 (Herbicidal rate of 70% or more and less than 90%) | 4 (Herbicidal rate of 70% or more and less than 90%) | 5 (Herbicidal rate of 90% or more (almost completely withered)) | 
3 | CCCSc1ccc(-c2sc3ccc(F)cc3c2-c2c(OC(=O)CCC)c(C)nn(C)c2=O)cc1 [2-249] | 5 (Herbicidal rate of 90% or more (almost completely withered)) | 3 (Herbicidal rate of 40% or more and less than 70%) | 5 (Herbicidal rate of 90% or more (almost completely withered)) | 5 (Herbicidal rate of 90% or more (almost completely withered)) | 0 (Herbicidal rate of 5% or less (almost no effect)) | 0 (Herbicidal rate of 5% or less (almost no effect)) | 5 (Herbicidal rate of 90% or more (almost completely withered)) | 2 (Herbicidal rate of 20% or more and less than 40%) | 5 (Herbicidal rate of 90% or more (almost completely withered)) | 0 (Herbicidal rate of 5% or less (almost no effect)) | 5 (Herbicidal rate of 90% or more (almost completely withered)) | 5 (Herbicidal rate of 90% or more (almost completely withered)) | 0 (Herbicidal rate of 5% or less (almost no effect)) | 4 (Herbicidal rate of 70% or more and less than 90%) | 0 (Herbicidal rate of 5% or less (almost no effect)) | 5 (Herbicidal rate of 90% or more (almost completely withered)) | 
4 | Cc1nn(C)c(=O)c(-c2c(-c3ccc(SC(C)C)cc3)sc3ccc(F)cc23)c1O [2-252] | 5 (Herbicidal rate of 90% or more (almost completely withered)) | 3 (Herbicidal rate of 40% or more and less than 70%) | 5 (Herbicidal rate of 90% or more (almost completely withered)) | 5 (Herbicidal rate of 90% or more (almost completely withered)) | 0 (Herbicidal rate of 5% or less (almost no effect)) | 0 (Herbicidal rate of 5% or less (almost no effect)) | 5 (Herbicidal rate of 90% or more (almost completely withered)) | 2 (Herbicidal rate of 20% or more and less than 40%) | 4 (Herbicidal rate of 70% or more and less than 90%) | 1 (Herbicidal rate of 5% or more and less than 20%) | 5 (Herbicidal rate of 90% or more (almost completely withered)) | 4 (Herbicidal rate of 70% or more and less than 90%) | 3 (Herbicidal rate of 40% or more and less than 70%) | 5 (Herbicidal rate of 90% or more (almost completely withered)) | 3 (Herbicidal rate of 40% or more and less than 70%) | 5 (Herbicidal rate of 90% or more (almost completely withered)) | 
5 | CCCC(=O)Oc1c(C)nn(C)c(=O)c1-c1c(-c2ccc(SC(C)C)cc2)sc2ccc(F)cc12 [2-253] |  | 5 (Herbicidal rate of 90% or more (almost completely withered)) |  |  | 0 (Herbicidal rate of 5% or less (almost no effect)) | 0 (Herbicidal rate of 5% or less (almost no effect)) | 4 (Herbicidal rate of 70% or more and less than 90%) | 3 (Herbicidal rate of 40% or more and less than 70%) |  | 0 (Herbicidal rate of 5% or less (almost no effect)) |  |  | 3 (Herbicidal rate of 40% or more and less than 70%) | 2 (Herbicidal rate of 20% or more and less than 40%) | 0 (Herbicidal rate of 5% or less (almost no effect)) |  | H: barnyard grass, herbicidal effect (criteria 0-5) (barnyard grass; AAH 320 g/ha): 5 (Herbicidal rate of 90% or more (almost completely withered)); P: chickweed, herbicidal effect (criteria 0-5) (chickweed; AAH 320 g/ha): 5 (Herbicidal rate of 90% or more (almost completely withered)); N: redroot pigweed, herbicidal effect (criteria 0-5) (redroot pigweed; AAH 320 g/ha): 5 (Herbicidal rate of 90% or more (almost completely withered)); F: southern crabgrass, herbicidal effect (criteria 0-5) (southern crabgrass; AAH 320 g/ha): 4 (Herbicidal rate of 70% or more and less than 90%); R: persian speedwell, herbicidal effect (criteria 0-5) (persian speedwell [3]; AAH 320 g/ha): 5 (Herbicidal rate of 90% or more (almost completely withered)); G: green foxtail, herbicidal effect (criteria 0-5) (green foxtail; AAH 320 g/ha): 5 (Herbicidal rate of 90% or more (almost completely withered)); M: velvetleaf, herbicidal effect (criteria 0-5) (velvetleaf; AAH 320 g/ha): 5 (Herbicidal rate of 90% or more (almost completely withered))
